Measurements: patent US20190321496A1, “AGENTS AND METHODS FOR THE DIAGNOSIS AND TREATMENT OF DISEASES ASSOCIATED WITH EXTRACELLULAR MATRIX TURNOVER” (Baker IDI Heart and Diabetes Institute Holdings Limited, priority 2016, published 2019)
*1 amine or outer side, *2 acyl side, *3 side chain or, on linkers, in order; H or OH if unused. Where no end group is shown, it is not given here. [ ]: non-standard residue; d: D form. The star is where a group is joined. FITC = O=C1OC2(c3ccc(O)cc3Oc3cc(O)ccc32)c2ccc(NC(=S)*)cc21; Cys(Me) = CSC[C@H](N[*:1])C(=O)[*:2]; AEA = NCCOCC(=O)O

Tests used:
[1] = tested on: MMP2-predigested collagen IV; experiment: In vitro binding to MMP2-predigested collagen IV coated glass slides; design: species or system human; details: for FITC signal on MMP2-predigested collagen IV coated glass slide: 0.1 mg/ml, room temperature
Description: (§1) T-peptide-FITC (Alexa 488) and control peptide-FITC conjugates, as well as the unlabelled T-peptide-LPETG peptide, were commercially synthesized (GL Biochem. Shanghai, China) using solid phase peptide synthesis, as described elsewhere herein. The concentration of the synthesized peptides were all at 1 mg/ml.
Binding to MMP2 digested collagen IV Collagen IV was applied to glass slides coated with polylysine. 1. Polylysine (MW of 30,000-70,000) at 0.1 mg/ml in 0.15 M borate buffer (pH 8.3) was prepared and filtered with […] pore size membrane syringe filter (Millex® Syringe Filter, Millipore). 2. Collagen IV (collagen type IV from human fibroblast culture, Sigma. Aldrich) was diluted to 1:10 with Hank's Balanced Salt Solution (HBSS) to 0.04 mg/ml. 3. For MMP2 digestion, Active recombinant human MMP2 enzyme (expressed in CHO cells) was purchased from Calbiochem. MMP2 stock solution was diluted with PBS to create 0.01 μg/μl MMP2 concentration according to manufacturer's recommendations. 4. For T-peptide-HTC testing using added MMP2, 20 μl of polylysine was spotted on several glass slides and left overnight at room temperature to dry. This forms a coating base for collagen to adhere to subsequently. 5. To predigest some collagen IV with MMP2, 3 μl of (0.1 mg/ml ) MMP2 was mixed with 35.8 μl of diluted collagen IV solution with 1.2 μl of 100 mM CaCl2 (3 mM Calcium final concentration) in an Eppendorf tube and incubated at 37° C. shaking at 600 rpm in an Eppendorf Thermomixer for 2 hours. 6. To create intact collagen IV coated slides, […] of diluted collagen IV solution was dropped onto the dried polylysine spot on the slide. 7. To create MMP2 predigested collagen IV coated slides, […] predigested collagen IV was dropped onto the dried polylysine spot on the glass slide. 8. The slides with collagen IV were dried uncovered overnight before testing. 9. Next day, […] of T-peptide-FITC (0.1 mg/ml) was added to the MMP2 predigested collagen spot, […] of T-peptide-FITC (0.1 mg/ml) was added to the intact collagen slide, and […] Control peptide-FITC (0.1mg/ml) was added to the MMP2 predigested collagen slide and the slides were incubated in a covered humidified box with wet paper towels at room temperature for 60 minutes. 10. For the ‘blocked epitope’ slide, […] of unlabelled T-peptide-LPETG (0.1 mg/ml) was added to the MMP2 predigested collagen slide and incubated similarly for 60 minutes. This step binds the epitopes present on the collagen IV and prevents further binding with the FITC labelled T-peptide. Next, […] of T-peptide-FITC (0.1 mg/ml) was added to the same area and incubated for 60 minutes. 11. All the treated slides were examined under fluorescence microscopy (IX81 Olympus microscope).

[2] = tested on: unstable plaque in the mouse carotid artery; experiment: Ex vivo binding to frozen sections of tandem stenosis mouse carotid unstable plaques; details: 0.1 mg/ml conjugate, 60 minutes, FITC channel fluorescence microscopy
Description: (§2) Conjugates of T-peptide (TLTYTWS)-FITC (Alexa 488) and control peptide (Con-peptide)-FITC were commercially synthesized (GL Biochem, Shanghai China) using solid phase peptide synthesis, as described above. The concentration of the synthesized peptide-FITC conjugates was 1 mg/ml.
(§3) At 12 weeks of age and 6 weeks after commencement of high fat diet, ApoE−/− mice (C57BL/6J background) were anaesthetized by intraperitoneal injection of a mixture of ketamine (100 mg/kg) and xylazine (10 mg/kg). An incision was made in the neck and the right common carotid artery exposed by dissecting away circumferential connective tissue. A tandem stenosis with 150 μm outer diameter was introduced with the distal stenosis placed 1 mm from the carotid artery bifurcation and the proximal stenosis 3 mm from the distal stenosis. A 6-0 blue braided polyester fibre suture was tied around the carotid artery and a 150 μm needle to achieve the stenosis diameter of 150 μm and the needle was subsequently removed after the suture was secured. The incision wound was sutured close and the mice resumed their high fat diet. […]
(§4) Frozen […] tissue sections of tandem stenosis mouse carotid unstable plaques and aortic arch stable plaques on glass slides were thawed for 30 minutes at room temperature. […] The slides were then examined by fluorescence microscopy (IX81 Olympus microscope) in the FITC 488 nm channel.

[3] = tested on: unstable plaque (right common carotid artery segment 1); experiment: In vivo binding to unstable plaque after intravenous administration to tandem stenosis mice; design: species or system mouse; details: tandem stenosis ApoE-/- mice, bolus plus infusion into jugular vein, tissue taken 30 minutes after administration
Description: (§5) The T-peptide-FITC (Alexa 488) and its control scrambled peptide Con-peptide-FITC were commercially synthesized (GL Biochem. Shanghai China) using solid phase peptide synthesis, as described elsewhere herein. The concentration of the synthesized peptides were all at 1 mg/ml,
(§6) Each mouse with an average weight of 25 g, would receive […] of T-peptide-FITC or […] of Con-peptide-FITC diluted 1:2 to give concentration of 0.5 mg/ml, which works out to be […] body weight, […] of the diluted peptide will be given as a bolus into the left external jugular vein and the remaining […] by infusion at a rate of […] using an infusion pump connected to a plastic catheter inserted into the left external jugular vein. The method of bolus dose followed by infusion is to optimize the blood level and duration of the circulating peptide to enhance plaque entry and vascular tissue retention of the peptide, since the small molecular weight of the peptide is at risk of rapid clearance through the kidneys. […]
(§7) The frozen section slides were thawed for 30 minutes at room temperature before examination under the fluorescence microscope (IX81 Olympus microscope) in the FITC 488 nm channel.

[4] = tested on: areas of localised fibrosis in the myocardium; experiment: Ex vivo binding to infarcted mouse myocardium (LAD occlusion); details: ex vivo sections of infarcted mouse hearts 6 weeks after LAD ligation
Description: To assess whether labelled T-peptide can bind to fibrotic myocardium, a mouse model of myocardial infarction (via left anterior descending coronary artery (LAD) occlusion) was used. This model reflects a very defined area of fibrosis in the infarct zone.
Mice were anaesthetised, the LAD ligated with a suture, and the thorax closed. After 60 mins the suture was removed. After 6 weeks and the development of fibrosis, parts of the infarcted hearts were sectioned and incubated with the T-peptide-FITC and control (s)-peptide-FITC constructs.

intact collagen IV = experiment: In vitro binding to undigested collagen IV coated glass slides; design: species or system human; details: 0.1 mg/ml, 60 minutes, room temperature
Description: as §1
Binding to MMP2 digested collagen IV Collagen IV was applied to glass slides coated with polylysine. 1. Polylysine (MW of 30,000-70,000) at 0.1 mg/ml in 0.15 M borate buffer (pH 8.3) was prepared and filtered with […] pore size membrane syringe filter (Millex® Syringe Filter, Millipore). 2. Collagen IV (collagen type IV from human fibroblast culture, Sigma. Aldrich) was diluted to 1:10 with Hank's Balanced Salt Solution (HBSS) to 0.04 mg/ml. 3. For MMP2 digestion, Active recombinant human MMP2 enzyme (expressed in CHO cells) was purchased from Calbiochem. MMP2 stock solution was diluted with PBS to create 0.01 μg/μl MMP2 concentration according to manufacturer's recommendations. 4. For T-peptide-HTC testing using added MMP2, 20 μl of polylysine was spotted on several glass slides and left overnight at room temperature to dry. This forms a coating base for collagen to adhere to subsequently. 5. […] All the treated slides were examined under fluorescence microscopy (IX81 Olympus microscope).

[5] = tested on: stable aortic arch plaques; experiment: Ex vivo binding to frozen sections of stable aortic arch plaques; design: species or system mouse; details: 0.1 mg/ml conjugate, 60 minutes, FITC channel fluorescence microscopy
Description: as §2, §3, §4

[6] = tested on: stable plaque (aortic arch segment 5); experiment: In vivo binding to stable aortic arch plaque after intravenous administration to tandem stenosis mice; design: species or system mouse; details: tandem stenosis ApoE-/- mice, bolus plus infusion into jugular vein, tissue taken 30 minutes after administration
Description: as §5, §6, §7

## HTLTYTWSGGGLPETGGHHHHHH-OH [T-peptide-LPETG]
[1]; preincubation 0.1 mg/ml, 60 minutes
  blocking of T-peptide-FITC binding to MMP2-predigested collagen IV: blocked binding

## GGGWWSSASPAATLTYTWSGLPAPASPA-eeeeeeee-(Aop)-PLGC(Me)AG-rrrrrrrrr-GAGAPAC (GGGWWSSASPAATLTYTWSGLPAPASPA[dE][dE][dE][dE][dE][dE][dE][dE][AEA]PLG[Cys(Me)]AG[dR][dR][dR][dR][dR][dR][dR][dR][dR]GAGAPAC) [GGG-T-peptide-ACPP-cysteine]
[1]
  binding to MMP2-predigested collagen IV fibres with additional amino acids at the N terminus: did not reduce or eliminate binding

## H-TLTYTWSGK(FITC)-OH (SMILES CC(C)C[C@H](NC(=O)[C@@H](N)[C@@H](C)O)C(=O)N[C@H](C(=O)N[C@@H](Cc1ccc(O)cc1)C(=O)N[C@H](C(=O)N[C@@H](Cc1c[nH]c2ccccc12)C(=O)N[C@@H](CO)C(=O)NCC(=O)N[C@@H](CCCCNC(=S)Nc1ccc2c(c1)C(=O)OC21c2ccc(O)cc2Oc2cc(O)ccc21)C(=O)O)[C@@H](C)O)[C@@H](C)O) [T-peptide-FITC conjugate]
[2]
  binding to unstable plaque (fluorescent signal): strong fluorescent signal within the lumen
[3]
  binding to the unstable plaque following intravenous administration: strong binding
[4]
  binding to fibrotic myocardium: binds specifically to areas of localised fibrosis in the myocardium
[1]; 60 minutes
  FITC signal on MMP2-predigested collagen IV coated glass slide: strong FITC signal
[1]; blocked epitope slide: unlabelled T-peptide-LPETG 0.1 mg/ml 60 minutes, then T-peptide-FITC 0.1 mg/ml 60 minutes
  FITC signal on MMP2-predigested collagen IV slide preincubated with unlabelled T-peptide: no significant FITC signal
Intact collagen IV
  FITC signal on undigested collagen IV coated glass slide: no FITC signal
[5]
  binding to stable plaque (fluorescent signal): no fluorescent signal within the vascular lumen
[6]
  binding to the stable aortic arch plaque after intravenous administration: no binding

## H-GLGYGWSGK(FITC)-OH (SMILES CC(C)C[C@H](NC(=O)CN)C(=O)NCC(=O)N[C@@H](Cc1ccc(O)cc1)C(=O)NCC(=O)N[C@@H](Cc1c[nH]c2ccccc12)C(=O)N[C@@H](CO)C(=O)NCC(=O)N[C@@H](CCCCNC(=S)Nc1ccc2c(c1)C(=O)OC21c2ccc(O)cc2Oc2cc(O)ccc21)C(=O)O) [control peptide-FITC conjugate, reference compound]
[2]
  binding to unstable plaque (fluorescent signal): no significant binding
[3]
  binding to the unstable plaque following intravenous administration: no evidence of binding
[4]
  binding to fibrotic myocardium: no evidence of binding
[1]; 60 minutes
  FITC signal on MMP2-predigested collagen IV coated glass slide: no FITC signal
